This note sets out measurements from patent US11446287B2, “Compounds and methods for EP300 or CBP modulation and indications therefor” (Opna Immuno-Oncology SA, priority 2019, dated 2022).

The experiment has as its target T1, Recombinant human CBP containing the bromodomain (CBP-BD (1043-1159)) (Homo sapiens, UniProt Q92793).
T1 construct: Recombinant human CBP bromodomain (CBP-BD (1043-1159)); made in house; host or cells: E. coli BL21-CodonPlus (DE3), modified pET vector
Put plainly: CBP Alphascreen binding assay. Conditions: read-out: CREBBP (CBP) IC50. In outline: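 Buffer: 50 mM HEPES pH 7.5, 50 mM NaCl, 0.01% BSA, 0.01% Triton X-100, 2 mM DTT. The signal was normalised to plate controls and fitted with a four-parameter curve to give IC50.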
On the technique in general: In Alpha technology, singlet oxygen from a donor bead excites a nearby acceptor bead.

T1 sequence (Q92793 1081-1197): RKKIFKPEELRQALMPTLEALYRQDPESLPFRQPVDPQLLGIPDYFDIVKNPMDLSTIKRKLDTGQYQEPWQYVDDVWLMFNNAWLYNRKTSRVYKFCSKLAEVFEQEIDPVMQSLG

The term IC50 denotes the concentration that gives 50% inhibition. `Cc1noc(C)c1-c1cnc2c(-c3cn(C)nc3C3CC3)c(C(F)(F)F)n([C@@H](C)c3ccccn3)c2c1` [P-0237, (S)-4-(3-(3-cyclopropyl-1-methyl-1H-pyrazol-4-yl)-1-(1-(pyridin-2-yl)ethyl)-2-(trifluoromethyl)-1H-pyrrolo[3,2-b]pyridin-6-yl)-3,5-dimethylisoxazole]: the IC50 fell in the range of 0.1 to 1000 nM.

Take `Cc1noc(C)c1-c1cnc2c(-c3cc(C(=O)O)ccc3F)c(C(F)(F)F)n([C@@H](C)c3ccccn3)c2c1` [P-0238, (S)-3-(6-(3,5-dimethylisoxazol-4-yl)-1-(1-(pyridin-2-yl)ethyl)-2-(trifluoromethyl)-1H-pyrrolo[3,2-b]pyridin-3-yl)-4-fluorobenzoic acid]: the IC50 lay in the range of 0.1 to 1000 nM. To `COc1ccc(C(=O)O)cc1-c1c(C(F)(F)F)n([C@@H](C)c2ccccn2)c2cc(-c3c(C)noc3C)cnc12` [P-0239, (S)-3-(6-(3,5-dimethylisoxazol-4-yl)-1-(1-(pyridin-2-yl)ethyl)-2-(trifluoromethyl)-1H-pyrrolo[3,2-b]pyridin-3-yl)-4-methoxybenzoic acid] belongs 1000 to 8000 nM; to `Cc1noc(C)c1-c1cnc2c(-c3cc(F)cc(C(=O)O)c3)c(C(F)(F)F)n([C@@H](C)c3ccccn3)c2c1` [P-0240, (S)-3-(6-(3,5-dimethylisoxazol-4-yl)-1-(1-(pyridin-2-yl)ethyl)-2-(trifluoromethyl)-1H-pyrrolo[3,2-b]pyridin-3-yl)-5-fluorobenzoic acid], 0.1 to 1000 nM.

Consider `Cc1noc(C)c1-c1cnc2c(-c3cc(Cl)cc(C(=O)O)c3)c(C(F)(F)F)n([C@@H](C)c3ccccn3)c2c1` [P-0241, (S)-3-chloro-5-(6-(3,5-dimethylisoxazol-4-yl)-1-(1-(pyridin-2-yl)ethyl)-2-(trifluoromethyl)-1H-pyrrolo[3,2-b]pyridin-3-yl)benzoic acid], for which the concentration for half-maximal inhibition (IC50) was in the range of 0.1 to 1000 nM. As for `Cc1noc(C)c1-c1cnc2c(-c3ccc(C(=O)O)c(F)c3)c(C(F)(F)F)n([C@@H](C)c3ccccn3)c2c1` [P-0242, (S)-4-(6-(3,5-dimethylisoxazol-4-yl)-1-(1-(pyridin-2-yl)ethyl)-2-(trifluoromethyl)-1H-pyrrolo[3,2-b]pyridin-3-yl)-2-fluorobenzoic acid], the IC50 lay within 1000 to 8000 nM.
